In ChEMBL document CHEMBL4651402, “Screening of ~5500 FDA-approved drugs and clinical candidates for anti-SARS-CoV-2 activity” (2021):
pIC50: −log10 of the molar value.

Legend:
SARS-CoV-2 [1] = test: microbe, parasite or virus in culture; type: functional, organism-based, Chlorocebus sabaeus, Vero C1008; details: Severe acute respiratory syndrome coronavirus 2, Vero C1008, 48 h; for pIC50: read-out: IC50; for IC50: read-out: pIC50 (converted)
in vitro = details: chlorocebus sabaeus, Vero E6 (Vero C1008) cells
SARS-CoV-2 [2] = test: microbe, parasite or virus in culture; details: Severe acute respiratory syndrome coronavirus 2, Vero C1008, 48 h; for IC50: read-out: pIC50 (converted)

Work on `NCC[C@H](Oc1ccc(C(F)(F)F)cc1)c1ccccc1` [SEPROXETINE] yielded a pIC50 (SARS-CoV-2 [1]) of less than 4.00, an IC50 (SARS-CoV-2 [1]) greater than 100 µM and a CC50 at 48 h (in vitro; CC50) of 10.6 µM. It also gave a CC50 at 48 h (in vitro; pCC50) of 10.5 µM, a pIC50 (SARS-CoV-2 [2]) of 5.12 and an IC50 (SARS-CoV-2 [2]) of 7.59 µM.

`Cc1c(CN2CCN(c3cccc(C(F)(F)F)c3)CC2)cc(-c2ccccc2)n1NC(=O)c1ccncc1` [SUDOTERB] showed a pIC50 (SARS-CoV-2 [1]) of less than 4.00, an IC50 (SARS-CoV-2 [1]) greater than 100 µM and a CC50 at 48 h (in vitro; CC50) of roughly 14.3 µM. It also gave a CC50 at 48 h (in vitro; pCC50) of roughly 14.1 µM, a pIC50 (SARS-CoV-2 [2]) of less than 4.00 and an IC50 (SARS-CoV-2 [2]) greater than 100 µM.

Compound `Cc1cc2cc(Oc3ccnc(Nc4cccc(CS(=O)(=O)NCCN(C)C)c4)n3)ccc2[nH]1` [SURUFATINIB] has a pIC50 (SARS-CoV-2 [1]) of less than 4.30, an IC50 (SARS-CoV-2 [1]) greater than 50.1 µM and a CC50 at 48 h (in vitro; CC50) of 4.9 µM. It also gave a CC50 at 48 h (in vitro; pCC50) of 4.9 µM, a pIC50 (SARS-CoV-2 [2]) of less than 5.00 and an IC50 (SARS-CoV-2 [2]) greater than 10 µM.

`COc1cc2c(N3CCN(C(=O)Nc4ccc(OC(C)C)cc4)CC3)ncnc2cc1OCCCN1CCCCC1` [TANDUTINIB] gave a pIC50 (SARS-CoV-2 [1]) of less than 4.00, an IC50 (SARS-CoV-2 [1]) greater than 100 µM and a CC50 at 48 h (in vitro; CC50) of 11.5 µM. It also gave a CC50 at 48 h (in vitro; pCC50) of 11.5 µM, a pIC50 (SARS-CoV-2 [2]) of less than 4.00 and an IC50 (SARS-CoV-2 [2]) greater than 100 µM.

Work on `CN1CCC(COc2cnc(-c3cccc(Cn4nc(-c5cccc(C#N)c5)ccc4=O)c3)nc2)CC1` [TEPOTINIB] yielded a pIC50 (SARS-CoV-2 [1]) of less than 4.00, an IC50 (SARS-CoV-2 [1]) greater than 100 µM and a CC50 at 48 h (in vitro; CC50) of 5.75 µM. For the same compound, the CC50 at 48 h (in vitro; pCC50) was 5.75 µM, the pIC50 (SARS-CoV-2 [2]) was less than 4.00 and the IC50 (SARS-CoV-2 [2]) was greater than 100 µM.

In the case of `CC(C)N1CCN(c2ccc(OCC3COC(Cn4cncn4)(c4ccc(Cl)cc4Cl)O3)cc2)CC1` (centres undefined) [TERCONAZOLE], the pIC50 (SARS-CoV-2 [1]) was less than 4.90, the IC50 (SARS-CoV-2 [1]) was greater than 12.6 µM and the CC50 at 48 h (in vitro; CC50) was roughly 10 µM. The CC50 at 48 h (in vitro; pCC50) was roughly 10 µM, the pIC50 (SARS-CoV-2 [2]) was 4.78 and the IC50 (SARS-CoV-2 [2]) was 16.6 µM.

With `CC(C)(C)c1ccc(C(O)CCCN2CCC(C(O)(c3ccccc3)c3ccccc3)CC2)cc1` (centres undefined) [TERFENADINE] the pIC50 (SARS-CoV-2 [1]) was less than 4.00, the IC50 (SARS-CoV-2 [1]) was greater than 100 µM and the CC50 at 48 h (in vitro; CC50) was roughly 5.13 µM. The CC50 at 48 h (in vitro; pCC50) was roughly 5.13 µM, the pIC50 (SARS-CoV-2 [2]) was less than 4.00 and the IC50 (SARS-CoV-2 [2]) was greater than 100 µM.

For `Cc1c(-c2ccccc2)oc2c(C(=O)OC(C)(C)CN3CCCCC3)cccc2c1=O` [TERFLAVOXATE], the pIC50 (SARS-CoV-2 [1]) was less than 4.00, the IC50 (SARS-CoV-2 [1]) was greater than 100 µM and the CC50 at 48 h (in vitro; CC50) was roughly 63.1 µM. For the same compound, the CC50 at 48 h (in vitro; pCC50) was roughly 63.1 µM, the pIC50 (SARS-CoV-2 [2]) was less than 4.00 and the IC50 (SARS-CoV-2 [2]) was greater than 100 µM.

`CN1CCN(CCCN2c3ccccc3Sc3ccc(S(=O)(=O)N(C)C)cc32)CC1` [THIOPROPERAZINE] gave a pIC50 (SARS-CoV-2 [1]) of less than 4.00, an IC50 (SARS-CoV-2 [1]) greater than 100 µM and a CC50 at 48 h (in vitro; CC50) of 6.31 µM. It also gave a CC50 at 48 h (in vitro; pCC50) of 6.31 µM, a pIC50 (SARS-CoV-2 [2]) of 4.88 and an IC50 (SARS-CoV-2 [2]) of 13.2 µM.

`CN1CCN(CC/C=C2/c3ccccc3Sc3ccc(S(=O)(=O)N(C)C)cc32)CC1` [THIOTHIXENE] gave a pIC50 (SARS-CoV-2 [1]) of 5.24, an IC50 (SARS-CoV-2 [1]) of 5.75 µM and a CC50 at 48 h (in vitro; CC50) of 4.96 µM. It also gave a CC50 at 48 h (in vitro; pCC50) of 4.9 µM, a pIC50 (SARS-CoV-2 [2]) of less than 4.00 and an IC50 (SARS-CoV-2 [2]) greater than 100 µM.

Work on `CCCSc1ccccc1N1CCN(CCCCn2c(=O)[nH]c3ccccc3c2=O)CC1` [TIOPERIDONE] yielded a pIC50 (SARS-CoV-2 [1]) of less than 4.00, an IC50 (SARS-CoV-2 [1]) greater than 100 µM and a CC50 at 48 h (in vitro; CC50) of 7.24 µM. The CC50 at 48 h (in vitro; pCC50) was 7.24 µM, the pIC50 (SARS-CoV-2 [2]) was 5.04 and the IC50 (SARS-CoV-2 [2]) was 9.12 µM.

With `O=C1CC2(CCCC2)CC(=O)N1CCCCN1CCN(c2nsc3ccccc23)CC1` [TIOSPIRONE] the pIC50 (SARS-CoV-2 [1]) was less than 4.00, the IC50 (SARS-CoV-2 [1]) was greater than 100 µM and the CC50 at 48 h (in vitro; CC50) was 24.6 µM. For the same compound, the CC50 at 48 h (in vitro; pCC50) was 24.5 µM, the pIC50 (SARS-CoV-2 [2]) was less than 4.00 and the IC50 (SARS-CoV-2 [2]) was greater than 100 µM.

Compound `Cn1cncc1[C@@](N)(c1ccc(Cl)cc1)c1ccc2c(c1)c(-c1cccc(Cl)c1)cc(=O)n2C` [TIPIFARNIB] has a pIC50 (SARS-CoV-2 [1]) of less than 4.00, an IC50 (SARS-CoV-2 [1]) greater than 100 µM and a CC50 at 48 h (in vitro; CC50) of 13.3 µM. The CC50 at 48 h (in vitro; pCC50) was 13.2 µM, the pIC50 (SARS-CoV-2 [2]) was less than 4.00 and the IC50 (SARS-CoV-2 [2]) was greater than 100 µM.

With `CC(C)CN(C[C@@H](O)[C@H](Cc1ccccc1)NC(=O)O[C@H]1CO[C@H]2OCC[C@H]21)S(=O)(=O)c1ccc2nc(NC3CCN(C4CCCC4)CC3)sc2c1` [TMC 310911] the pIC50 (SARS-CoV-2 [1]) was roughly 5.02, the IC50 (SARS-CoV-2 [1]) was roughly 9.55 µM and the CC50 at 48 h (in vitro; CC50) was roughly 13 µM. For the same compound, the CC50 at 48 h (in vitro; pCC50) was roughly 12.9 µM, the pIC50 (SARS-CoV-2 [2]) was 5.40 and the IC50 (SARS-CoV-2 [2]) was 3.89 µM.

Work on `Cc1cc(C)c2nc(-c3cnc(NCCCC4CCN(C)CC4)nc3C)[nH]c2c1` [TOREFORANT] yielded a pIC50 (SARS-CoV-2 [1]) of less than 4.30, an IC50 (SARS-CoV-2 [1]) greater than 50.1 µM and a CC50 at 48 h (in vitro; CC50) of 22.4 µM. The CC50 at 48 h (in vitro; pCC50) was 22.4 µM, the pIC50 (SARS-CoV-2 [2]) was less than 4.60 and the IC50 (SARS-CoV-2 [2]) was greater than 25.1 µM.

`CCOC1O[C@H]([C@@H](COCc2ccccc2)OCc2ccccc2)[C@H](OCc2ccccc2)[C@H]1O` (some centres undefined) [TRIBENOSIDE] gave a pIC50 (SARS-CoV-2 [1]) of less than 4.30, an IC50 (SARS-CoV-2 [1]) greater than 50.1 µM and a CC50 at 48 h (in vitro; CC50) of 17.4 µM. It also gave a CC50 at 48 h (in vitro; pCC50) of 17.4 µM, a pIC50 (SARS-CoV-2 [2]) of less than 4.30 and an IC50 (SARS-CoV-2 [2]) greater than 50.1 µM.

Compound `CN1CCN(CCCN2c3ccccc3Sc3ccc(C(F)(F)F)cc32)CC1` [TRIFLUOPERAZINE] has a pIC50 (SARS-CoV-2 [1]) of less than 4.00, an IC50 (SARS-CoV-2 [1]) greater than 100 µM and a CC50 at 48 h (in vitro; CC50) of 7.94 µM. The CC50 at 48 h (in vitro; pCC50) was 7.94 µM, the pIC50 (SARS-CoV-2 [2]) was 5.19 and the IC50 (SARS-CoV-2 [2]) was 6.46 µM.

In the case of `CC[C@@H]1C(=O)N(C)c2cnc(Nc3ccc(C(=O)N[C@H]4CC[C@H](N5CCN(CC6CC6)CC5)CC4)cc3OC)nc2N1C(C)C` [VOLASERTIB], the pIC50 (SARS-CoV-2 [1]) was less than 4.30, the IC50 (SARS-CoV-2 [1]) was greater than 50.1 µM and the CC50 at 48 h (in vitro; CC50) was 0.234 µM. The CC50 at 48 h (in vitro; pCC50) was 0.234 µM, the pIC50 (SARS-CoV-2 [2]) was less than 4.30 and the IC50 (SARS-CoV-2 [2]) was greater than 50.1 µM.

Work on `CN(C)CCOC1=Cc2ccccc2Sc2ccc(Cl)cc21` [ZOTEPINE] yielded a pIC50 (SARS-CoV-2 [1]) of less than 4.00, an IC50 (SARS-CoV-2 [1]) greater than 100 µM and a CC50 at 48 h (in vitro; CC50) of 12.3 µM. For the same compound, the CC50 at 48 h (in vitro; pCC50) was 12.3 µM, the pIC50 (SARS-CoV-2 [2]) was less than 4.00 and the IC50 (SARS-CoV-2 [2]) was greater than 100 µM.
